Laboratory results from patent publication US9527807B2, “Sulfonamide derivative and use thereof” (Takeda Pharmaceutical Company Limited, priority 2011, dated 2016).

Target: T1, AMPA receptor (human GluR1 flip/stargazin expressed in CHO-K1 cells) (Homo sapiens, UniProt P42261)
T1 construct: expressed in transfected cells; host or cells: CHO-K1
Assay: AMPA receptor function enhancing activity using calcium influx as index
Assay type: cell-based
Conditions: change in fluorescence level in 3 min, 100% = 3 mM glutamic acid + 300 μM cyclothiazide, 0% = 3 mM glutamic acid only
Source text: Human GluR1 flip cDNA was amplified by PCR using forward primer […] (SEQ ID NO: 1) and reverse primer […] (SEQ ID NO: 2) artificially synthesized using human brain-derived cDNA (BD Bio science) as a template. The amplified product was digested with restriction enzymes EcoRI, NotI (TAKARA SHUZO CO. LTD.), and incorporated into the same site of pcDNA3.1(+) (Invitrogen) to construct pcDNA3.1(+)/human GluR1 flip gene. Human stargazin cDNA was amplified by PCR using forward primer […] (SEQ ID NO: 3) and reverse primer. […] (SEQ ID NO: 4) artificially synthesized using human hippocampus cDNA as a template. The amplified product was digested with restriction enzymes XhoI, BamHI (TAKARA SHUZO CO. LTD.), and incorporated into the same site of pcDNA3.1(−) (Invitrogen) to construct pcDNA3.1 Zeo(−)/human stargazin gene.
(2) Construction of GluR1 Flip/Stargazin Expressing Cell
CHO-K1 cells passaged in a culture medium (Ham's F12 medium (Invitrogen) added with 10% inactivated fetal bovine serum (Morgate) and penicillin, streptomycin (Invitrogen)) were detached with 0.05% trypsin, 0.53 mM EDTA (Invitrogen) diluted with D-PBS(−). The detached cells were suspended in a culture medium, and recovered by a centrifugation operation at 1,000 rpm. The recovered cells were suspended again in D-PBS(−), and added to a 0.4 cm electroporation cuvette (BioRad). pcDNA3.1(+)/human GluR1 flip gene (5 μg) and pcDNA3.1 Zeo(−)/human stargazin gene (15 μg) were added, and the mixture was introduced into CHO-K1 cells using Gene Pulser II (BioRad) under the conditions of 950 μFd, […]. The introduced cells were cultured overnight in a culture medium and, the next day, plated in a 96 well plate at 250 cells/well using a selection medium (culture medium added with Zeocin (Invitrogen) to 250 μg/mL). Clones showing drug resistance were selected, and GluR1 flip/stargazin expressing clones were selected by an assay method using calcium influx as an index as shown below.
(3) Measurement Method of AMPA Receptor Function Enhancing Activity of Compound Using Calcium Influx as Index
CHO-K1/GluR1 flip/stargazin expressing cells were plated on a 384 well black transparent bottom plate (FMAT4307723) at 0.5×10^4 cells/well, and cultured in a 37° C., CO2 incubator (SANYO Electric Co., Ltd.) for 2 days. The medium in the cell plate was removed, and a calcium indicator (Calcium 4 Assay Kit, Molecular. Devices) containing 1.25 mM probenecid (Invitrogen) was added at 25 μL/well and the well was left standing in 37° C., CO2 incubator for 1 hr. The cell plate was set in FLITRtetra (Molecular Devices), a mixture (12.5 μL) of 9 mM glutamic acid diluted with assay buffer B (HBSS (Invitrogen), 0.1% BSA, 10 mM HEPES) and a test compound was added, and the amount of change in fluorescence level in 3 min was measured. In the definition here, the amount of change in fluorescence level of well added with glutamic acid at final concentration 3 mM and 300 μM cyclothiazide (TOCRIS) is 100%, the amount of change in fluorescence level of well added only with glutamic acid at final concentration 3 mM is 0%, and the compound activity was calculated according to the following formula. activity (%)=(X−C)/(T−C)×100 T: amount of change in fluorescence level of well added with glutamic acid at final concentration 3 mM and 300 μM cyclothiazide C: amount of change in fluorescence level of well added only with glutamic acid at final concentration 3 mM X: amount of change in fluorescence level of well added with to test compound

T1 sequence (P42261 19-906 isoform P42261-2 limits assumed): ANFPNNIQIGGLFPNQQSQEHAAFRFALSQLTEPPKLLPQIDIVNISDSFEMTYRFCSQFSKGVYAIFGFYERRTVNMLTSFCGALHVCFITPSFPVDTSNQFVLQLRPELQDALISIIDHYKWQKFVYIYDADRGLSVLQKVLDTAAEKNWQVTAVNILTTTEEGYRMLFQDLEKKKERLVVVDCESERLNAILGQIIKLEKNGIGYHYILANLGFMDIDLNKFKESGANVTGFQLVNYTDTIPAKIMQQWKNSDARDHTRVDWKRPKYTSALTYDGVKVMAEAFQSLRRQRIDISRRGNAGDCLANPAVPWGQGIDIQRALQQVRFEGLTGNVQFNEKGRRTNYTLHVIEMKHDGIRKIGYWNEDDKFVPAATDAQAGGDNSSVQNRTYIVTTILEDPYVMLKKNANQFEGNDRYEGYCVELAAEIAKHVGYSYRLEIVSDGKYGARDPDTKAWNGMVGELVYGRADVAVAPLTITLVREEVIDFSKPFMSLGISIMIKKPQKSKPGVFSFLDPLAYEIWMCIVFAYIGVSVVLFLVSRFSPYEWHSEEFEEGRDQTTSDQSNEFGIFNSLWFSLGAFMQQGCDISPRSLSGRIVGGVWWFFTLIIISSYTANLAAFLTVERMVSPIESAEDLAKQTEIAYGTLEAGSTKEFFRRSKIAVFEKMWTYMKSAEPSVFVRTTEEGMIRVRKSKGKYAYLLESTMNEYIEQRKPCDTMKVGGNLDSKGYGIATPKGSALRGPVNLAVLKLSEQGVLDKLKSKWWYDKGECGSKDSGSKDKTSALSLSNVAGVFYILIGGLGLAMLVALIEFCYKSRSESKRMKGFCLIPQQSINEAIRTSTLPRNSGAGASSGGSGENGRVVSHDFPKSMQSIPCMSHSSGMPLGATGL
T1 sequence (Q9Y698 whole entry partner): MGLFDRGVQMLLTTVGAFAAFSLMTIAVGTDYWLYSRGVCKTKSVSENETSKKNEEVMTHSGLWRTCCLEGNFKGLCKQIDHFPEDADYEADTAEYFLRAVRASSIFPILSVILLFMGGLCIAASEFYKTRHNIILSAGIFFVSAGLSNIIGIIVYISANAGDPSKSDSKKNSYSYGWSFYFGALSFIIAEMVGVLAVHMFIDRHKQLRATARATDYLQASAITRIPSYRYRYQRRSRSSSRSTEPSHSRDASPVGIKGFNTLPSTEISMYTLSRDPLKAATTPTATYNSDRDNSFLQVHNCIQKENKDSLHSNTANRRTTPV

activity (%) | Structure (SMILES)
59% | CS(=O)(=O)N[C@@H]1CCOC[C@H]1COc1ccc(-c2ncc(Cl)cc2F)cc1 (single isomer, unassigned) [Example 382, N-[(3S,4R)-3-{[4-(5-chloro-3-fluoropyridin-2-yl)phenoxy]methyl}tetrahydro-2H-pyran-4-yl]methanesulfonamide or N-[(3R,4S)-3-{[4-(5-chloro-3-fluoropyridin-2-yl)phenoxy]methyl}tetrahydro-2H-pyran-4-yl]methanesulfonamide]
68% | CS(=O)(=O)N[C@H]1CCOC[C@@H]1COc1ccc(-c2ccc(F)cn2)c(F)c1 (single isomer, unassigned) [Example 477, N-[(3R,4S)-3-{[3-fluoro-4-(5-fluoropyridin-2-yl)phenoxy]methyl}tetrahydro-2H-pyran-4-yl]methanesulfonamide or N-[(3S,4R)-3-{[3-fluoro-4-(5-fluoropyridin-2-yl)phenoxy]methyl}tetrahydro-2H-pyran-4-yl]methanesulfonamide]
65% | CS(=O)(=O)N[C@H]1COCC[C@@H]1COc1ccc(-c2ccc(Cl)cn2)cc1 [Example 205, N-[(3R,4S)-4-{[4-(5-chloropyridin-2-yl)phenoxy]methyl}tetrahydro-2H-pyran-3-yl]methanesulfonamide]
101% | CS(=O)(=O)N[C@H]1CCC(F)(F)C[C@@H]1COc1ccc(-c2ncc(C#N)cc2F)cc1 [Example 215, N-[(1S,2S)-2-{[4-(5-cyano-3-fluoropyridin-2-yl)phenoxy]methyl}-4,4-difluorocyclohexyl]methanesulfonamide]
89% | CCS(=O)(=O)N[C@H]1CCC(F)(F)C[C@@H]1COc1ccc(-c2ncc(C#N)cc2F)cc1 [Example 222, N-[(1S,2S)-2-{[4-(5-cyano-3-fluoropyridin-2-yl)phenoxy]methyl}-4,4-difluorocyclohexyl]ethanesulfonamide]
91% | O=S(=O)(N[C@H]1CCOC[C@@H]1COc1ccc(-c2ncc(Cl)cc2F)cc1)C1CC1 [Example 256, N-[(3R,4S)-3-{[4-(5-chloro-3-fluoropyridin-2-yl)phenoxy]methyl}tetrahydro-2H-pyran-4-yl]cyclopropanesulfonamide]
93% | CCS(=O)(=O)N[C@H]1CCC(F)(F)C[C@@H]1COc1ccc(-c2cccn(C)c2=O)cc1 [Example 267, N-[(1S,2S)-4,4-difluoro-2-{[4-(1-methyl-2-oxo-1,2-dihydropyridin-3-yl)phenoxy]methyl}cyclohexyl]ethanesulfonamide]
101% | CS(=O)(=O)N[C@H]1CCC(F)(F)C[C@@H]1COc1ccc(-c2ccc(C#N)cn2)cc1 [Example 268, N-[(1S,2S)-2-{[4-(5-cyanopyridin-2-yl)phenoxy]methyl}-4,4-difluorocyclohexyl]methanesulfonamide]

Further lines, the compound ahead of its results:

Structure (SMILES) | activity (%)
CCS(=O)(=O)N[C@H]1CCN(C(C)=O)C[C@@H]1COc1ccc(C(C)C)cc1 (single isomer, unassigned) [Example 94, trans-N-[1-acetyl-3-{[4-(1-methylethyl)phenoxy]methyl}piperidin-4-yl]ethanesulfonamide] | 70%
CCS(=O)(=O)N[C@H]1COCC[C@@H]1COc1ccc(C(C)C)cc1 (single isomer, unassigned) [Example 110, trans-N-[4-{[4-(1-methylethyl)phenoxy]methyl}tetrahydro-2H-pyran-3-yl]ethanesulfonamide] | 88%
CCS(=O)(=O)N[C@H]1CCOC[C@@H]1COc1ccc(OC(F)F)cc1 (single isomer, unassigned) [Example 124, trans-N-[3-{[4-(difluoromethoxy)phenoxy]methyl}tetrahydro-2H-pyran-4-yl]ethanesulfonamide] | 81%
CS(=O)(=O)N[C@@H]1CCOC[C@H]1COc1ccc(-c2ccc(Cl)cn2)cc1F (single isomer, unassigned) [Example 266, N-[(3S,4R)-3-{[4-(5-chloropyridin-2-yl)-2-fluorophenoxy]methyl}tetrahydro-2H-pyran-4-yl]methanesulfonamide or N-[(3R,4S)-3-{[4-(5-chloropyridin-2-yl)-2-fluorophenoxy]methyl}tetrahydro-2H-pyran-4-yl]methanesulfonamide] | 92%
CCS(=O)(=O)N[C@H]1CCOC[C@@H]1COc1ccc(-c2ccc(F)cn2)c(F)c1 (single isomer, unassigned) [Example 313, N-[(3R,4S)-3-{[3-fluoro-4-(5-fluoropyridin-2-yl)phenoxy]methyl}tetrahydro-2H-pyran-4-yl]ethanesulfonamide or N-[(3S,4R)-3-{[3-fluoro-4-(5-fluoropyridin-2-yl)phenoxy]methyl}tetrahydro-2H-pyran-4-yl]ethanesulfonamide] | 99%
CCS(=O)(=O)N[C@H]1CCCC[C@@H]1COc1ccc(C(C)C)cc1 [Example 13, N-[(1S,2S)-2-{[4-(1-methylethyl)phenoxy]methyl}cyclohexyl]ethanesulfonamide] | 81%
CS(=O)(=O)N[C@H]1COCC[C@@H]1COc1ccc(-n2cc(Cl)cn2)cc1 [Example 206, N-[(3R,4S)-4-{[4-(4-chloro-1H-pyrazol-1-yl)phenoxy]methyl}tetrahydro-2H-pyran-3-yl]methanesulfonamide] | 74%
CS(=O)(=O)N[C@H]1COCC[C@@H]1COc1ccc(-n2cc(Cl)cn2)cc1F [Example 207, N-[(3R,4S)-4-{[4-(4-chloro-1H-pyrazol-1-yl)-2-fluorophenoxy]methyl}tetrahydro-2H-pyran-3-yl]methanesulfonamide] | 74%
CCS(=O)(=O)N[C@H]1COCC[C@@H]1COc1ccc(-c2ccc(Cl)cn2)cc1 [Example 209, N-[(3R,4S)-4-{[4-(5-chloropyridin-2-yl)phenoxy]methyl}tetrahydro-2H-pyran-3-yl]ethanesulfonamide] | 85%
Cc1cc(-c2ccc(OC[C@H]3COCC[C@@H]3NS(C)(=O)=O)cc2F)no1 [Example 247, N-[(3R,4S)-3-{[3-fluoro-4-(5-methylisoxazol-3-yl)phenoxy]methyl}tetrahydro-2H-pyran-4-yl]methanesulfonamide] | 87%
CCS(=O)(=O)N[C@H]1CCOC[C@@H]1COc1ccc(-c2cc(C)on2)c(F)c1 [Example 248, N-[(3R,4S)-3-{[3-fluoro-4-(5-methylisoxazol-3-yl)phenoxy]methyl}tetrahydro-2H-pyran-4-yl]ethanesulfonamide] | 87%
O=S(=O)(N[C@H]1COCC[C@@H]1COc1ccc(-c2ccc(F)cn2)cc1F)C1CC1 [Example 264, N-[(3R,4S)-4-{[2-fluoro-4-(5-fluoropyridin-2-yl)phenoxy]methyl}tetrahydro-2H-pyran-3-yl]cyclopropanesulfonamide] | 104%
CS(=O)(=O)N[C@H]1CCOC[C@@H]1COc1ccc(-n2cc(C(F)(F)F)cn2)cc1 [Example 265, N-[(3R,4S)-3-({4-[4-(trifluoromethyl)-1H-pyrazol-1-yl]phenoxy}methyl)tetrahydro-2H-pyran-4-yl]methanesulfonamide] | 78%
CS(=O)(=O)N[C@H]1CCOC[C@@H]1COc1ccc(-n2cc(Cl)cn2)cc1 [Example 269, N-[(3R,4S)-3-{[4-(4-chloro-1H-pyrazol-1-yl)phenoxy]methyl}tetrahydro-2H-pyran-4-yl]methanesulfonamide] | 93%
O=S(=O)(N[C@H]1CCOC[C@@H]1COc1ccc(-n2cc(Cl)cn2)cc1)C1CC1 [Example 277, N-[(3R,4S)-3-{[4-(4-chloro-1H-pyrazol-1-yl)phenoxy]methyl}tetrahydro-2H-pyran-4-yl]cyclopropanesulfonamide] | 90%
